Data as given in patent EP4729516A1, “S[…] DERIVATIVE, INTERMEDIATE, PREPARATION METHOD THEREFOR AND USE THEREOF” (Jiangsu NHWA Pharmaceutical Co., Ltd, priority 2023, dated 2024).
Structures can show the parent of a compound that is named as a salt. Where two headings read alike, the source gives them in different places.

What was measured:
[1] = target: T1, α2A adrenoceptor (Homo sapiens, UniProt P08913); experiment: Agonist screening mode cAMP assay, 293-α2A cells; type: cell-based; conditions: for agonistic activity on the α2A receptor / agonistic activity α1A/2A: in words, compared with dexmedetomidine hydrochloride; for Function α1A/2A: ratio of α1A to α2A EC50
T1 construct: host or cells: 293
T1 sequence (P08913 1-465): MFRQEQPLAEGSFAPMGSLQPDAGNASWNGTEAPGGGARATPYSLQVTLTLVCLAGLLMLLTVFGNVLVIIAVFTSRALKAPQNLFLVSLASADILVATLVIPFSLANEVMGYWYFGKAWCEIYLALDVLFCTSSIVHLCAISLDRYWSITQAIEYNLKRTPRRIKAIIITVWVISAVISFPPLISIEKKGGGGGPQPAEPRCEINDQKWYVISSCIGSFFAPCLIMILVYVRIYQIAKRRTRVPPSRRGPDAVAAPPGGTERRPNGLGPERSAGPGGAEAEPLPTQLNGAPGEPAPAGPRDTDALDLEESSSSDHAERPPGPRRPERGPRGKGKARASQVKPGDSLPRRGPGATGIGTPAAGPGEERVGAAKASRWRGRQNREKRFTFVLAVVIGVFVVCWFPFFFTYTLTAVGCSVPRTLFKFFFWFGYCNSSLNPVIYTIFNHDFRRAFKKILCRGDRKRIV
Procedure: The cells were centrifuged at 1000 rpm for 5 min, and the supernatant was discarded. 3 mL of PBS was added, and the mixture was gently pipetted to be mixed well. The cells were centrifuged again at 1000 rpm for 5 min, and the supernatant was discarded. The cells were resuspended in the 1× Stimulation buffer and counted using a Countstar cell counter, and the cell density was adjusted to 4 × 10^5 cells/mL for later use. • (4) Cell addition: The cell suspension was added to assay plates at 5 µL/well (i.e., about 2000 cells/well). • (5) Compound addition: The compound diluted with the Stimulation buffer was added to the assay plates described above at 4 µL/well. • (6) Reaction and incubation: After gentle shaking, the assay plates were incubated at 37 °C for 20 min. • (7) Agonist Forskolin addition: A 10× adenylate cyclase agonist (Forskolin with a final concentration of 1 µM) solution was added at 1 µL/well. • (8) Reaction and incubation: After gentle shaking, the assay plates were incubated at 37 °C for 45 min. • (9) Detection reagent addition: cAMP-cryptate and Anti-cAMP-d2 were separately diluted according to a ratio of 1:20 with Lysis & detection buffer in the Cisbio cAMP-Gi detection kit, and the diluted cAMP-cryptate and Anti-cAMP-d2 described above were separately added to the assay plate at 5 µL/well. After shaking, the assay plates were left to stand at room temperature for 60 min. • (10) Experimental readings: The plate was read on Envision, readings from the 665 nm and 615 nm channels were taken, and the ratio of 665 nm/615 nm readings was calculated.

[2] = system: Male SD rats; experiment: Fluctuations in blood pressure and heart rate after administration; type: in vivo; conditions: for maximum decrease rates of HR / recovery of HR / maximum increase rates of MAP: compared with dexmedetomidine hydrochloride; for HR decrease Maximum decrease rate / MAP decrease Maximum decrease rate / MAP increase Maximum increase rate: dose as in Test Example 3, within 90 min; for decreases in MAP: no significant decreases greater than the stated value
Procedure: Male SD rats, weighing 250-300 g, with 4 rats per group, were maintained under general anesthesia by isoflurane inhalation. Femoral artery cannulation was performed, and blood pressure and heart rate were monitored using a Powerlab data acquisition and analysis system. 30 min after the baseline values stabilized, the baseline mean arterial pressure (MAP0) and baseline heart rate (HR0) were measured. The rats were given a solution of each compound in normal saline via tail vein injection (the dose of each compound was the same as in Test Example 3, with rapid intravenous injection over 10 s). Blood pressure and heart rate were continuously recorded for 90 min. MAP^+ (the difference between the maximum mean arterial pressure (MAPmax) and MAP0), MAP^-(the difference between the minimum mean arterial pressure (MAPmin) and MAP0), and HR^- (the difference between the minimum heart rate (HRmin) and HR0) within 90 min were calculated. For calculation, the maximum increase rate of mean arterial pressure = MAP^+/MAP0 × 100%; the maximum decrease rate of mean arterial pressure = MAP^-/MAP0 × 100%; and the maximum decrease rate of heart rate = HR^-/HR0 × 100%.

[3] = EC50, cAMP-Gi, 293-α2A cells, Forskolin 1 µM, read-out: Function α2A
[4] = isoflurane-anesthetized male SD rats, tail vein injection, dose as in Test Example 3
[5] = isoflurane-anesthetized male SD rats, tail vein injection

Compound | EC50 [1, 3] | agonistic activity on the α2A receptor [1] | Function α1A/2A [1] | agonistic activity α1A/2A [1] | EC50 [1] | maximum decrease rates of HR ([2]; in words, rats) | recovery of HR ([2]; in words, rats) | HR decrease Duration [2, 4] | MAP increase Duration [2, 4] | HR decrease Maximum decrease rate [2, 5] | MAP decrease Maximum decrease rate [2, 5] | MAP increase Maximum increase rate [2, 5] | decreases in MAP ([2]; rats) | maximum increase rates of MAP ([2]; in words, rats) | change in MAP after administration ([2]; in words, initial increase followed by a decrease, rats) | MAP decrease Duration [2, 4] | sustained reductions in MAP and HR ([2]; rats, recording for 90 min)
c1cc2c(c(Cc3c[nH]cn3)c1)SCCC2 [Compound 1, 4-[1-(Thiochroman-8-yl)methyl]-1H-imidazole] | 1.28 nM | comparable | 2.5 |  |  |  |  |  |  |  |  |  |  |  |  |  | 
CC(c1c[nH]cn1)c1cccc2c1SCCC2 (stereo not drawn) [Compound 2, 4-(1-[Thiochroman-8-yl)ethyl]-1H-imidazole] | 0.53 nM | superior | 10.1 | comparable |  |  |  |  |  |  |  |  |  |  |  |  | 
CC(c1c[nH]cn1)c1cccc2c1CC2 (stereo not drawn) [Compound 3, 4-(1-(Bicyclo[4.2.0]octa-1(6),2,4-trien-2-yl)ethyl)-1H-imidazole] |  | comparable | 18.3 | superior | 3.12 nM |  |  |  |  |  |  |  |  |  |  |  | 
CC(c1c[nH]cn1)c1cccc2c1CCCC2 (stereo not drawn) [Compound 4, 4-(1-(5,6,7,8-Tetrahydronaphthalen-1-yl)ethyl)-1H-imidazole] |  | comparable | 7.0 | comparable | 3.57 nM |  |  |  |  |  |  |  |  |  |  |  | 
CC(c1c[nH]cn1)c1cccc2c1C=CC2 (stereo not drawn) [Compound 8, 4-[1-(1H-Inden-4-yl)ethyl]-1H-imidazole] |  | superior | 23.9 | superior | 0.91 nM | lower | faster | 60 min | 2 min | 24.9±10.8% | 7.1±4.1% | 32.0±10.5% | ≤ 10% |  |  |  | 
CC(c1c[nH]cn1)c1cccc2c1OCC2 (stereo not drawn) [Compound 10, 4-[1-(2,3-Dihydrobenzofuran-7-yl)ethyl]-1H-imidazole] |  | comparable | 5.2 | comparable | 4.63 nM | lower | faster | 30 min | 2 min | 24.2±5.7 % | 7.9±7.4% | 17.3±5.0 % | ≤ 10% | lower |  |  | 
C[C@H](c1c[nH]cn1)c1cc(F)cc2c1C=CC2 [Compound 11-b, 4-[(1S)-1-(6-fluoro-1H-inden-4-yl)ethyl]-1H-imidazole] |  | comparable | 4.0 | comparable | 9.18 nM | lower | faster | 60 min | 2 min | 31.2±3.19% | 6.7±4.02% | 24.1±4.96% | ≤ 10% | lower |  |  | 
CC(c1c[nH]cn1)c1cccc2c1C=CC2(C)C (stereo not drawn) [Compound 17, 4-[1-(1,1-Dimethyl-1H-inden-4-yl)ethyl]-1H-imidazole] |  |  | 3.2 | comparable | 32 nM |  |  |  |  |  |  |  |  |  |  |  | 
C[C@H](c1c[nH]cn1)c1cccc2c1CCC2 [Compound 31-b, (S)-4-[1-(2,3-dihydro-1H-inden-4-yl)ethyl]-1H-imidazole] |  | comparable | 1.8 | comparable | 4.46 nM | lower | faster | 60 min | 2 min | 30.2±7.7% | 5.3±4.6% | 24.0±11.1% | ≤ 10% | lower |  |  | 
CC1Cc2cccc(C(C)c3c[nH]cn3)c2O1 (stereo not drawn) [Compound 32, 4-[1-(2-Methyl-2,3-dihydrobenzofuran-7-yl)ethyl]-1H-imidazole] |  |  | 0.0 |  | 353 nM |  |  |  |  |  |  |  |  |  |  |  | 
C[C@H](c1c[nH]cn1)c1cc(F)cc2c1C(=O)CC2 [Compound 38-b, (S)-7-(1-(1H-imidazol-4-yl)ethyl)-5-fluoro-2,3-dihydro-1H-inden-1-one] | 13.2 nM |  | 0.7 |  |  |  |  |  |  |  |  |  |  |  |  |  | 
Cc1cccc([C@H](C)c2cnc[nH]2)c1C [Dexmedetomidine hydrochloride, reference compound] |  |  |  |  |  |  |  | 90 min | 2 min | 33.8±5.3% | 16.5±14.6% | 27.7±4.1% |  |  | biphasic change in MAP | 90 min | 90 min
